Test results taken from patent publication US20260285850A1, “SUBSTITUTED OXAZOLIDINONES AND IMIDAZOLINONES AS HERBICIDES” (FMC CORPORATION, priority 2023, published 2026).

Columns and labels:
Format in all cases: in vivo
[1] = system: ducksalad (Heteranthera limosa); assay: Test B flooded paddy test, visual plant response rating 0-100; conditions: 250 g ai/ha, Flood, applied to paddy water, evaluated after 13 days
How it was run: (§1)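 Plants were grown to the 2-leaf stage, then pots were flooded to 3 cm above the soil and compound was applied directly to the paddy water, with that depth kept throughout.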

[2] = system: barnyardgrass (Echinochloa crusgalli); assay: as above; conditions: 250 g ai/ha, Flood, applied to paddy water, evaluated after 13 days
How it was run: as §1

[3] = system: sedge, umbrella (small-flower umbrella sedge, Cyperus difformis); assay: as above; conditions: 250 g ai/ha, Flood, applied to paddy water, evaluated after 13 days
How it was run: as §1

rice (Oryza sativa) = assay: as above; conditions: 250 g ai/ha, Flood, applied to paddy water, evaluated after 13 days
How it was run: as §1

[4] = system: ragweed (common ragweed, Ambrosia artemisiifolia); assay: Test A postemergence application, visual injury rating 0-100
How it was run: (§2)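 Visual injury, scored 0-100 (100 = complete control) against untreated plants, 10 days after greenhouse treatment. Test chemicals in surfactant-containing non-phytotoxic solvent were applied in loam soil and sand, as a preemergence soil spray on seeds or postemergence to plants at the one- to two-leaf stage.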

[5] = system: palmer (palmer amaranth, palmer pigweed, Amaranthus palmeri); assay: as above
How it was run: as §2

soybean (Glycine max) [6] = assay: as above
How it was run: as §2

[7] = system: blackgrass (Alopecurus myosuroides); assay: as above
How it was run: as §2

[8] = system: oat, wild (wild oat, Avena fatua); assay: as above
How it was run: as §2

[9] = system: galium (catchweed bedstraw, Galium aparine); assay: as above; conditions: Postemergence, 16 g ai/ha, greenhouse 10 days; 0 no effect, 100 complete control
How it was run: as §2

[10] = system: ryegrass, Italian (italian ryegrass, Lolium multiflorum); assay: as above
How it was run: as §2

corn (Zea mays) [11] = assay: as above
How it was run: as §2

[12] = system: wheat (Triticum aestivum); assay: as above
How it was run: as §2

[13] = system: green foxtail (Setaria viridis); assay: as above
How it was run: as §2

[14] = system: barnyardgrass (Echinochloa crus-galli); assay: as above
How it was run: as §2

kochia (Bassia scoparia) [15] = assay: as above
How it was run: as §2

[16] = system: horseweed (Erigeron canadensis); assay: as above
How it was run: as §2

[17] = system: ragweed (common ragweed, Ambrosia artemisiifolia); assay: Test A preemergence soil spray, visual injury rating 0-100; conditions: 10 days
How it was run: as §2

[18] = system: palmer (palmer amaranth, palmer pigweed, Amaranthus palmeri); assay: as above; conditions: 10 days
How it was run: as §2

soybean (Glycine max) [19] = assay: as above; conditions: 10 days
How it was run: as §2

[20] = system: blackgrass (Alopecurus myosuroides); assay: as above; conditions: 10 days
How it was run: as §2

[21] = system: oat, wild (wild oat, Avena fatua); assay: as above; conditions: 10 days
How it was run: as §2

[22] = system: ryegrass, Italian (italian ryegrass, Lolium multiflorum); assay: as above; conditions: 10 days
How it was run: as §2

corn (Zea mays) [23] = assay: as above; conditions: 10 days
How it was run: as §2

[24] = system: wheat (Triticum aestivum); assay: as above; conditions: 10 days
How it was run: as §2

[25] = system: green foxtail (Setaria viridis); assay: as above; conditions: 10 days
How it was run: as §2

[26] = system: barnyardgrass (Echinochloa crus-galli); assay: as above; conditions: 10 days
How it was run: as §2

kochia (Bassia scoparia) [27] = assay: as above; conditions: 10 days
How it was run: as §2

[28] = 62 g ai/ha, postemergence, 10 days, 0 = no effect, 100 = complete control
[29] = Postemergence, 16 g ai/ha, greenhouse 10 days, 0 no effect, 100 complete control
[30] = 62 g ai/ha, 0 = no effect, 100 = complete control

CC1(C(=O)NC2CC=C(C(=O)NS(=O)(=O)C3CC3)C2)CN(c2cc(F)cc(F)c2)C(=O)O1 (racemic) [Compound 90]
80: Blackgrass plant response rating (0-100) [7, 28] | Foxtail, Green plant response rating (0-100) [13, 28] | Kochia plant response rating (0-100) (kochia (Bassia scoparia) [15]; [28])
100: Corn plant response rating (0-100) (corn (Zea mays) [11]; [28])
10: Blackgrass plant response rating (0 to 100 scale) [7, 29] | Pigweed, Palmer plant response rating ([18]; 16 g ai/ha, 0 to 100 scale) | Soybean plant response rating (0-100) (soybean (Glycine max) [19]; [30]) | Foxtail, Green plant response rating (0-100) [25, 30]
60: Horseweed plant response rating (0-100) [16, 28]
0: Plant response rating, Ducksalad (0 to 100 scale, 0 is no effect and 100 is complete control) [1] | Plant response rating, Barnyardgrass (0 to 100 scale, 0 is no effect and 100 is complete control) [2] | Plant response rating, Sedge, Umbrella (0 to 100 scale, 0 is no effect and 100 is complete control) [3] | Plant response rating, Rice (0 to 100 scale, 0 is no effect and 100 is complete control) (rice (Oryza sativa)) | Ragweed plant response rating (0 to 100 scale) [4, 29] | Pigweed, Palmer plant response rating (0 to 100 scale) [5, 29] | Foxtail, Green plant response rating (0 to 100 scale) [13, 29] | Horseweed plant response rating (0 to 100 scale) [16, 29] | Ragweed plant response rating ([17]; 16 g ai/ha, 0 to 100 scale) | Ragweed plant response rating (0-100) [17, 30] | Soybean plant response rating (soybean (Glycine max) [19]; 16 g ai/ha, 0 to 100 scale) | Blackgrass plant response rating ([20]; 16 g ai/ha, 0 to 100 scale) | Blackgrass plant response rating (0-100) [20, 30] | Oat, Wild plant response rating ([21]; 16 g ai/ha, 0 to 100 scale) | Oat, Wild plant response rating (0-100) [21, 30] | Ryegrass, Italian plant response rating ([22]; 16 g ai/ha, 0 to 100 scale) | Ryegrass, Italian plant response rating (0-100) [22, 30] | Corn plant response rating (corn (Zea mays) [23]; 16 g ai/ha, 0 to 100 scale) | Corn plant response rating (0-100) (corn (Zea mays) [23]; [30]) | Wheat plant response rating ([24]; 16 g ai/ha, 0 to 100 scale) | Wheat plant response rating (0-100) [24, 30] | Foxtail, Green plant response rating ([25]; 16 g ai/ha, 0 to 100 scale) | Barnyardgrass plant response rating ([26]; 16 g ai/ha, 0 to 100 scale) | Barnyardgrass plant response rating (0-100) [26, 30] | Kochia plant response rating (kochia (Bassia scoparia) [27]; 16 g ai/ha, 0 to 100 scale) | Kochia plant response rating (0-100) (kochia (Bassia scoparia) [27]; [30])
90: Barnyardgrass plant response rating (0-100) [14, 28]
20: Oat, Wild plant response rating (0 to 100 scale) [8, 29] | Ryegrass, Italian plant response rating (0 to 100 scale) [10, 29] | Pigweed, Palmer plant response rating (0-100) [18, 30]
50: Oat, Wild plant response rating (0-100) [8, 28]
40: Soybean plant response rating (0-100) (soybean (Glycine max) [6]; [28]) | Galium plant response rating (0 to 100 scale) [9] | Wheat plant response rating (0 to 100 scale) [12, 29]
30: Ragweed plant response rating (0-100) [4, 28] | Soybean plant response rating (0 to 100 scale) (soybean (Glycine max) [6]; [29]) | Corn plant response rating (0 to 100 scale) (corn (Zea mays) [11]; [29]) | Barnyardgrass plant response rating (0 to 100 scale) [14, 29]
70: Pigweed, Palmer plant response rating (0-100) [5, 28] | Ryegrass, Italian plant response rating (0-100) [10, 28] | Wheat plant response rating (0-100) [12, 28] | Kochia plant response rating (0 to 100 scale) (kochia (Bassia scoparia) [15]; [29])
